Results on 1 compound are retold here after patent publication US9744186B2 (priority 2012, dated 2017).

A short description of data set [1]: TC50 MTS assay: RPK9 cells (deficient in deoxycytidine kinase). Type of data set: cell-based. The settings on record: human, 48 h drug treatment, dCK-deficient cells. On the procedure:
(§1) Plating Cells: The Huh7, HEPG2, HEK293, MCF-7, PK9, RPK9, or BxPC3 cells were passaged when they were about 70% confluent. The cells were counted using a hemocytometer, and then diluted cells to 0.5×10^5 cells per mL in DMEM+10% FBS. 100 µL of the cells (5,000 cells) were plated per well in a clear 96-well plate. The cells were allowed to attach for 24 hours at 37° C.
(§2) Treating the cells: Pre-warm the DMEM media without phenol red+2% FBS media to 37° C. […] This will bring the final DMSO concentration to 0.5%. Use these 0.5 mM dilutions to further serially the drugs in DMEM without phenol red+2% FBS+0.5% DMSO. This will keep the concentration of DMSO in each condition identical. Remove the 96-well plate from the 37° C. incubator. Replace the media on the plate with the dilutions of the drugs. Stagger these treatments by 1 h and write the treatment time on each set of plates. Return to 37° C. for 48 h or 96 h as indicated.
(§3) MTS Assay: The reagents from CellTiter 96 kit (Promega Corporation, Madison, Wis.) were thawed at room temperature in the dark for 1 h. The 96-well plate was removed from the 37° C. incubator at 48 h after drug treatment. […] The absorbance of each well at 490 nm and 650 nm was determined using the Flexstation 3 microplate reader in endpoint mode every hour for 3 h. The solutions in the wells were mixed prior to each reading. […]
(Tetrazolium assays rely on reduction of a dye to a coloured formazan, in cell work by metabolically active cells.)

Data set [2] is described as follows: TC50 MTS assay with human cancer cell lines: MCF-7. Type of data set: cell-based. The conditions noted are these: MCF-7 cells, 96 h drug treatment. On the procedure: as §1, §2
(§4) MTS Assay: The reagents from CellTiter 96 kit (Promega Corporation, Madison, Wis.) were thawed at room temperature in the dark for 1 h. The 96-well plate was removed from the 37° C. incubator at 48 h after drug treatment. 20 μL of the combined MTS/PMS reagent to each well of the plate, mixed, and the plate returned to 37° C. The absorbance of each well at 490 nm and 650 nm was determined using the Flexstation 3 microplate reader in endpoint mode every hour for 3 h. The solutions in the wells were mixed prior to each reading. Fit Data to the Emax model: y=(Emax*x)/(TC50+x), where Emax is the maximum inhibition and TC50 is the inhibitory dose 50%. Alternatively, fit the data to the Emax sigmoidal model: y=(Emax*x^slope)/(TC50^slope+x^slope), where slope is the Hill Slope.
(§5) Each TC50 was the average value of three measurements as described herein. […] The RPK9 cells are deficient in deoxycytidine kinase (“dCK”) activity, an enzyme required for the initial phosphorylation of dFdC to dFdCMP (see FIG. 2).

A short description of data set [3]: TC50 MTS assay with human cancer cell lines: HEPG2. The class given is cell-based. The conditions noted are these: HEPG2 cells, 96 h drug treatment. On the procedure:
as §1, §2, §4, §5

Data set [4] can be described thus: Compound solubility in media. The settings on record: DMEM+2% FBS cell culture media, 37 °C, plasma or biological fluid, kinetic from dmso stock; DMEM+2% FBS media. The class given is physicochemical. On the procedure:
(§6) Treating the cells: Media (DMEM+2% FBS) was pre-warmed to 37° C. […] The 96-well plate was removed from the 37° C. incubator, and the media replaced on the plate with the serial dilutions of the test drug. The plate was then returned to 37° C. for 48 h.

Data set [5] relates to HCV luciferase replicon. As to the kind of experiment: HCV luciferase replicon IC50 assay in Huh7 cells. The conditions noted are these: Hepatitis C virus. As to the method: Plating Cells: The Luciferase replicon cell line was passaged when it was at about 70% confluency. The cells were counted by using a hemocytometer and diluted to 1×10^5 cells per mL in DMEM+10% FBS+[…] G415. The cells were plated as follows: 100 μL of the cells (10,000 cells) per well in a white-walled 96-well plate. The cells were allowed to attach for 24 hours at 37° C.
as §6
Luciferase Assay: The Bright-Glo reagent (Promega Corporation, Madison, Wis.) was removed from the −80° C. freezer and allowed to thaw it at 4° C. in the dark. The amount of reagent necessary for the experiment (3.65 mL) was removed, and the remaining reagent was returned to −80° C. The Glo Lysis Buffer and the Bright Glow reagent were allowed to warm to room temperature for 30 min in the dark. The 96 well plate was removed from the incubator and the cells to allowed cool to room temperature for 30 min. The media was removed from the cells, and each well was gently washed in 100 μL of phosphate buffered saline (PBS). The PBS was removed and then 50 μL of the Glo Lysis Buffer was added to each well, followed by gently rocking the plate for 15 min at room temperature in the dark to ensure complete cell lysis. To each well of the 96-well plate was added 50 μL of the Bright Glo reagent and it was mixed well with the lysate. The plate was inserted into a GloMax 96 plate reader and allowed to sit for 5 min in the dark for the luciferase reaction to reach a steady state. The luminescence on the plate was read by using the pre-installed “Bright Glo” Promega program (Synergy Software) and the data were collected and saved. The data were fit to a 4 parameter logistic curve using Kaleidagraph using the following equation: 100/(1+(x/m3)^m4).
The data in Table 1 were determined for cells exposed to drug for 48 h. The IC50 is the concentration of each compound necessary to inhibit the replication of the HCV luciferase replicon to 50%.
That is, the cells were exposed to drug for 2 h at 37° C., followed by 46 h at 37° C. or incubated in the presence of drug for 48 h at 37° C.
For orientation: A replicon is a self-replicating genome or part of one, used to study replication in cells.

The subject of data set [6] is HCV luciferase replicon. The data set is described as follows: Isobologram analysis of synergism with other anti-viral compounds. Type of data set: cell-based, hepatitis C virus (HCV). On the procedure:
Isobologram analysis was carried to assess the potential synergistic interaction of representative disclosed compounds with representative antiviral compounds. The isobolgram analysis was conducted as previously described by Chou and Talalay (see Chou T. C. and Talalay P. “Analysis of combined drug effects: a new look at a very old problem.” Trends Pharmacol Sci 1983; 4:450-4; and Chou T. C. and Talalay P. “Quantitative analysis of dose-effect relationships: the combined effects of multiple drugs or enzyme inhibitors.” Adv Enzyme Regul 1984; 22:27-55). The definitions of synergism are those described by Chou (see Chou, T. C. (2006) Theoretical basis, experimental design, and computerized simulation of synergism and antagonism in drug combination studies. Pharmacol Rev. 58(3):621-81).
Data for the isobologram analysis are shown in FIGS. 12-15, and shown in each figure are the test compound concentrations and corresponding combination index.

A short description of data set [7]: TC50 MTS assay: PK9 cells. Type of data set: cell-based. The settings on record: human, 48 h drug treatment. On the procedure: as §1, §2, §3
Data set [8] relates to HCV luciferase replicon. The data set is described as follows: Reversal of anti-HCV activity by exogenous nucleosides. Type of data set: cell-based, hepatitis C virus (HCV). The settings on record: drug 1000, 100 or 25 nM; 50 μM cytidine or 2′-deoxycitidine; 48 h. As to the method: After 48 hours, the cells were lysed, and the total luciferase activity was determined. […] Where indicated, either 50 μM cytidine (C) or 50 μM 2′-deoxycitidine (dC) was also included.
The cells were plated, incubated with drug, and luciferase activity assayed essentially as described herein above. The incubation with drug was for 48 h.

Another data set concerns hENT1. The data set is described as follows: TC50 MTS assay with human cancer cell lines: Huh7. The class given is cell-based. The conditions noted are these: human, Huh7 cells; 48 h drug treatment; 10 μM S-(4-nitrobenzyl)-6-thioinosine (hENT1 inhibitor) added; read-out: TC50 (μM) in Huh7 cells NBTI. As to the method: as §1, §2, §4, §5
The nature of data set [9]: TC50 MTS assay with human cancer cell lines: Huh7. The conditions noted are these: human, Huh7 cells; 96 h drug treatment. Type of data set: cell-based. As to the method: as §1, §2, §4, §5
Data set [10] is described as follows: TC50 MTS assay with human cancer cell lines: HEK293. The settings on record: HEK293 cells, 96 h drug treatment. The class given is cell-based. On the procedure: as §1, §2, §4, §5
Data set [11] in a line: TC50 MTS assay with human cancer cell lines: BxPC3. The class given is cell-based. The settings on record: BxPC3 cells, 96 h drug treatment. On the procedure:
as §1, §2, §3

A value given as a limit tells only on which side of the number the result lay.

By solubility is commonly meant the concentration that dissolves in the medium under given conditions. What is called IC50 is the point on the concentration scale where inhibition reaches its midpoint.

Take `Nc1ccn([C@@H]2O[C@H](CO)[C@@H](O)C2(F)F)c(=O)n1` [gemcitabine, 4-amino-1-((2R,4R,5R)-3,3-difluoro-4-hydroxy-5-(hydroxymethyl)tetrahydrofuran-2-yl)pyrimidin-2(1H)-one, reference compound]: the values for the CC50 at 48 h (in data set [1]; in data set [7]; in the data set with hENT1) were over 500 µM, 0.095 ± 0.035 µM and over 500 µM, respectively. The CC50 at 96 h in data set [2] came to 67 ± 14 nM; in data set [3], 311 ± 55 nM; in data set [9], 3410 ± 1360 nM; in data set [10] it was 560 ± 130 nM; in [11] it was 2.9 ± 0.3 nM. This compound registered a solubility in data set [4] of over 500 µM. In addition, the concentration for half-maximal inhibition (IC50) in the data set on HCV luciferase replicon [5] (Huh-7, 48 h, cells incubated with drug continuously for 48 h (Table 5)) came out at 58.4 ± 6.1 nM; in the data set with HCV luciferase replicon [5] (Huh-7, cells incubated with drug for 2 h, followed by 46 h without drug), 170 ± 33 nM. For the same compound, the “Interaction Type with PSI-6130” value with HCV luciferase replicon [6] (Compound 2 = PSI-6130) is reported as “synergism”. The “Interaction Type with PSI-7977” value in the data set on HCV luciferase replicon [6] (Compound 2 = PSI-7977) is listed as “slight synergism”. For the same compound, the “reversal of the inhibition of the HCV luciferase replicon by deoxycytidine and cytidine” value in the data set with HCV luciferase replicon [8] is on record as “reversal”.
